For 34 compounds, IC50 results are on record in patent publication US20170291890A1 (Epizyme, Inc., priority 2014, published 2017).

This test addresses T1, KDM5A (Homo sapiens, UniProt P29375).
T1 construct: C-terminal FLAG-tagged KDM5A^1-1090 was purchased from BPS Biosciences; FLAG (C); purchased BPS Biosciences
T1 sequence (P29375 1-1090): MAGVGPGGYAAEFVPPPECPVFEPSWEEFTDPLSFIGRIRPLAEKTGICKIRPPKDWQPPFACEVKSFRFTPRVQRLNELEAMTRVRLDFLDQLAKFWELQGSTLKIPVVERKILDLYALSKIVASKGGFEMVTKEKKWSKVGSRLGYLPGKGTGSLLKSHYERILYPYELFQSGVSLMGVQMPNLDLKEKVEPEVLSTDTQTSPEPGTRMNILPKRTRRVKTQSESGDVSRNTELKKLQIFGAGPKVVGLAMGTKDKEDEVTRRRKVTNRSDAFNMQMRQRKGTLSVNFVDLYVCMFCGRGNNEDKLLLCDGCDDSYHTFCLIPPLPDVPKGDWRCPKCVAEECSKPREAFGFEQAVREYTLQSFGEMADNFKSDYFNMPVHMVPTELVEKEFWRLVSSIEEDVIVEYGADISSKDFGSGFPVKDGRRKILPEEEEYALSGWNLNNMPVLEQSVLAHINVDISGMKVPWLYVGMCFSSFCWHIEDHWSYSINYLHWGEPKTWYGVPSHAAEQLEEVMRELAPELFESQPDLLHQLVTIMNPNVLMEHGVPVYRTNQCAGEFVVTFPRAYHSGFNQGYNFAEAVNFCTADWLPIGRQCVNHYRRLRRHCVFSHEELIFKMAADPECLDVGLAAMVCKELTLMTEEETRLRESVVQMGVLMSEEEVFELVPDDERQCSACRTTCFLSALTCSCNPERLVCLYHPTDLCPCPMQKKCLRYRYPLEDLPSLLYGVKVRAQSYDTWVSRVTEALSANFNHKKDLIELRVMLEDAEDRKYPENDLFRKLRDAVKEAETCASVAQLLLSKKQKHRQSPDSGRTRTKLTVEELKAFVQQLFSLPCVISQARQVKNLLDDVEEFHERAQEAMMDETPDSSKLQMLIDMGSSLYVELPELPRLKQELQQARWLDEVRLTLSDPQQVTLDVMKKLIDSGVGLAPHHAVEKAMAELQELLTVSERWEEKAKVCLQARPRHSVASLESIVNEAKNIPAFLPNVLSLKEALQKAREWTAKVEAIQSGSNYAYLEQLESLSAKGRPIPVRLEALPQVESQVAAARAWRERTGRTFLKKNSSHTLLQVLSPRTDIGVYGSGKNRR
The test can be described thus: KDM5A Assay (SAMDI mass spectrometry demethylase assay). In kind it is biochemical. The conditions noted are these: C-terminal FLAG-tagged KDM5A 1-1090; class symbols; read-out: 5A IC50. In a few lines: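 FLAG-tagged KDM5A 1-1090 (20 nM) preincubated 30 min with compound in pH 8.0 HEPES buffer with ascorbate, Fe(II), TCEP, then reacted 150 min at 25 °C with H3K4me3 peptide (250 nM) and 2-oxoglutarate (15 μM). Formic acid-quenched; SAMDI-MS substrate/product AUC conversion; IC50 from dose-response.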

Regarding `N[C@H]1CC[C@H](n2nc(-c3ccccc3)cc2Nc2cnccc2C(=O)O)CC1` [Compound 38, 3-((1-((trans)-4-aminocyclohexyl)-3-phenyl-1H-pyrazol-5-yl)amino)isonicotinic acid], the 50% inhibitory concentration (IC50) was in the range of 1000 to 10000 nM.

Regarding `O=C(O)c1ccncc1Nc1cc(-c2ccccc2)nn1[C@H]1CC[C@H](O)CC1` [Compound 39, 3-((1-((trans)-4-hydroxycyclohexyl)-3-phenyl-1H-pyrazol-5-yl)amino)isonicotinic acid], the IC50 lay in the range of 10000 to 100000 nM. The same measure for `O=C(O)c1ccncc1Nc1cc(-c2ccccc2)nn1[C@H]1CC[C@@H](O)CC1` [Compound 40, 3-((1-((cis)-4-Hydroxycyclohexyl)-3-phenyl-1H-pyrazol-5-yl)amino)isonicotinic acid]: 1000 to 10000 nM; for `O=C(O)c1ccncc1Nc1cn(-c2ccccc2)nc1-c1ccccc1` [Compound 41, 3-((1,3-Diphenyl-1H-pyrazol-4-yl)amino)isonicotinic acid]: 1000 to 10000 nM; for `O=C(O)c1ccncc1Nc1nn(-c2ccccc2)cc1-c1ccccc1` [Compound 42, 3-((1,4-diphenyl-1H-pyrazol-3-yl)amino)isonicotinic acid]: 100 to 1000 nM. In the case of `O=C(O)c1ccncc1Nc1c(-c2ccccc2)cnn1-c1ccccc1` [Compound 43, 3-((1,4-Diphenyl-1H-pyrazol-5-yl)amino)isonicotinic acid], the IC50 lay within 10000 to 100000 nM.

For `O=C(O)c1ccncc1Nc1nn(CCN2CCC(F)(F)CC2)cc1-c1ccc(F)cc1` [Compound 45, 3-((1-(2-(4,4-difluoropiperidin-1-yl)ethyl)-4-(4-fluorophenyl)-1H-pyrazol-3-yl)amino)isonicotinic acid], the half-maximal inhibitory concentration (IC50) was 1 to 100 nM. Regarding `O=C(O)c1ccncc1Nc1c(-c2ccc(F)cc2)cnn1CCN1CCC(F)(F)CC1` [Compound 46, 3-((1-(2-(4,4-difluoropiperidin-1-yl)ethyl)-4-(4-fluorophenyl)-1H-pyrazol-5-yl)amino) isonicotinic acid], the half-inhibitory concentration (IC50) was in the range of 1000 to 10000 nM.

As for `CN(C)CCCn1cc(-c2ccccc2)c(Nc2cnccc2C(=O)O)n1` [Compound 51, 3-((1-(3-(dimethylamino)propyl)-4-phenyl-1H-pyrazol-3-yl)amino) isonicotinic acid], the half-inhibitory concentration (IC50) was 1 to 100 nM. The same measure for `CN(C)CCCn1ncc(-c2ccccc2)c1Nc1cnccc1C(=O)O` [Compound 52, 3-((1-(3-(dimethylamino)propyl)-4-phenyl-1H-pyrazol-5-yl)amino) isonicotinic acid]: 1000 to 10000 nM; for `Cc1c(-c2ccccc2)nn(C)c1Nc1cnccc1C(=O)O` [Compound 53, 3-((1,4-dimethyl-3-phenyl-1H-pyrazol-5-yl)amino)isonicotinic acid]: 1000 to 10000 nM; for `Cc1n[nH]c(-c2ccccc2)c1Nc1cnccc1C(=O)O` [Compound 55, 3-((5-methyl-3-phenyl-1H-pyrazol-4-yl)amino)isonicotinic acid]: 1000 to 10000 nM. The same measure for `O=C(O)c1ccncc1Nc1cc(-c2ccccc2)nn1-c1ccncc1` [Compound 56, 3-((3-phenyl-1-(pyridin-4-yl)-1H-pyrazol-5-yl)amino) isonicotinic acid]: 1000 to 10000 nM. Consider `O=C(O)c1ccncc1Nc1nn(CCN2CCC(F)(F)CC2)cc1C1CCCCC1` [Compound 57, 3-((4-cyclohexyl-1-(2-(4,4-difluoropiperidin-1-yl)ethyl)-1H-pyrazol-3-yl)amino)isonicotinic acid], for which the IC50 is 100 to 1000 nM. The result for `CNC(=O)c1ccc(-n2ncc(Nc3cnccc3C(=O)O)c2C)cc1` [Compound 58, 3-((5-methyl-1-(4-(methylcarbamoyl)phenyl)-1H-pyrazol-4-yl)amino) isonicotinic acid] reads 1000 to 10000 nM. Consider `CNC(=O)c1cccc(-n2ncc(Nc3cnccc3C(=O)O)c2C)c1` [Compound 59, 3-((5-methyl-1-(3-(methylcarbamoyl)phenyl)-1H-pyrazol-4-yl)amino) isonicotinic acid], for which the half-inhibitory concentration (IC50) was 1000 to 10000 nM. As to `Cc1cc(Nc2cnccc2C(=O)O)nn1-c1ccccc1` [Compound 60, 3-((5-methyl-1-phenyl-1H-pyrazol-3-yl)amino)isonicotinic acid], the IC50 lay in the range of 1000 to 10000 nM.

For the compound `Cc1cc(Nc2cnccc2C(=O)O)n(-c2ccccc2)n1` [Compound 61, 3-((3-methyl-1-phenyl-1H-pyrazol-5-yl)amino) isonicotinic acid], the IC50 was 1000 to 10000 nM. The same measure for `Cc1cn(-c2ccccc2)nc1Nc1cnccc1C(=O)O` [Compound 62, 3-((4-methyl-1-phenyl-1H-pyrazol-3-yl)amino) isonicotinic acid]: 1 to 100 nM; for `COc1ccccc1-n1cc(C)c(Nc2cnccc2C(=O)O)n1` [Compound 63, 3-((1-(2-methoxyphenyl)-4-methyl-1H-pyrazol-3-yl)amino) isonicotinic acid]: 1 to 100 nM. As for `CN(C)CCn1cc(-c2ccccc2)c(Nc2cnccc2C(=O)O)n1` [Compound 64, 3-((1-(2-(dimethylamino)ethyl)-4-phenyl-1H-pyrazol-3-yl)amino)isonicotinic acid], the IC50 lay in the range of 1 to 100 nM. Consider `CN(C)CCn1ncc(-c2ccccc2)c1Nc1cnccc1C(=O)O` [Compound 65, 3-((1-(2-(dimethylamino)ethyl)-4-phenyl-1H-pyrazol-5-yl)amino)isonicotinic acid], for which the IC50 fell in the range of 1000 to 10000 nM.

`Cc1c(-c2ccccc2)nn(CCN2CCC(F)(F)CC2)c1Nc1cnccc1C(=O)O` [Compound 66, 3-((1-(2-(4,4-difluoropiperidin-1-yl)ethyl)-4-methyl-3-phenyl-1H-pyrazol-5-yl)amino)isonicotinic acid]: the half-inhibitory concentration (IC50) lay in the range of 10000 to 100000 nM.

With `Cc1c(Nc2cnccc2C(=O)O)nn(CCN2CCC(F)(F)CC2)c1-c1ccccc1` [Compound 67, 3-((1-(2-(4,4-difluoropiperidin-1-yl)ethyl)-4-methyl-5-phenyl-1H-pyrazol-3-yl)amino)isonicotinic acid], the IC50 was 1 to 100 nM.

With `Cc1c(Nc2cnccc2C(=O)O)cnn1C1CCNCC1` [Compound 68, 3-((5-methyl-1-(piperidin-4-yl)-1H-pyrazol-4-yl)amino)isonicotinic acid], the concentration for half-maximal inhibition (IC50) was 1000 to 10000 nM. The same measure for `Cc1nn(C2CCNCC2)cc1Nc1cnccc1C(=O)O` [Compound 69, 3-((3-methyl-1-(piperidin-4-yl)-1H-pyrazol-4-yl)amino) isonicotinic acid]: 100 to 1000 nM; for `Cc1nn(-c2ccccc2C#N)cc1Nc1cnccc1C(=O)O` [Compound 70, 3-((1-(2-cyanophenyl)-3-methyl-1H-pyrazol-4-yl)amino) isonicotinic acid]: 1000 to 10000 nM; for `Cc1cn(-c2ccccc2C#N)nc1Nc1cnccc1C(=O)O` [Compound 71, 3-((1-(2-cyanophenyl)-4-methyl-1H-pyrazol-3-yl)amino) isonicotinic acid]: 1 to 100 nM. The result for `O=C(O)c1ccncc1Nc1nn(C2CCOCC2)cc1-c1ccccc1` [Compound 72, 3-((4-phenyl-1-(tetrahydro-2H-pyran-4-yl)-1H-pyrazol-3-yl)amino)isonicotinic acid] reads 100 to 1000 nM; that for `O=C(O)c1ccncc1Nc1nn(CCC(F)(F)F)cc1-c1ccccc1` [Compound 73, 3-((4-phenyl-1-(3,3,3-trifluoropropyl)-1H-pyrazol-3-yl)amino) isonicotinic acid], 1 to 100 nM.

Regarding `O=C(O)c1ccncc1Nc1nn(CCC(F)(F)F)cc1-c1ccncc1` [Compound 74, 3-((4-(pyridin-4-yl)-1-(3,3,3-trifluoropropyl)-1H-pyrazol-3-yl)amino)isonicotinic acid], the half-inhibitory concentration (IC50) was in the range of 100 to 1000 nM.

Regarding `COc1ccc(-n2nc(C)c(Nc3cnccc3C(=O)O)c2C)cc1` [Compound 75, 3-((1-(4-methoxyphenyl)-3,5-dimethyl-1H-pyrazol-4-yl)amino)isonicotinic acid], the IC50 lay in the range of 10000 to 100000 nM.

With `Cc1nn(-c2ccc(O)cc2)c(C)c1Nc1cnccc1C(=O)O` [Compound 76, 3-((1-(4-hydroxyphenyl)-3,5-dimethyl-1H-pyrazol-4-yl)amino)isonicotinic acid], the IC50 lay within 10000 to 100000 nM.

In the case of `Cc1nn(-c2ccccc2)c(C)c1Nc1cnccc1C(=O)O` [Compound 77, 3-((3,5-dimethyl-1-phenyl-1H-pyrazol-4-yl)amino)isonicotinic acid], the IC50 is 10000 to 100000 nM.
